Source: the NIST ThermoML archive (doi:10.1021/je400408w)

Key:
[1] = molar heat capacity at constant pressure; xn = mol fraction of the nth substance listed; conditions: 100 kPa, Liquid
[2] = 101.33 kPa, Liquid; for speed of sound: Pulse-echo method; for mass density: Vibrating tube method
[3] = molar heat capacity at constant pressure; conditions: 100 kPa, Liquid

Cc1ccc(Cl)cc1 [4-chlorotoluene] + O=C1CCCN1
molar heat capacity at constant pressure [J/K/mol], [1]
Conditions | 293.15 K | 298.15 K | 303.15 K
x2 = 0 | 175.66 | 177.95 | 180.37
x2 = 0.0386 | 175.99 | 178.08 | 180.47
x2 = 0.0724 | 176.3 | 178.23 | 180.58
x2 = 0.1123 | 176.65 | 178.52 | 180.66
x2 = 0.1526 | 177.03 | 178.78 | 180.84
x2 = 0.1926 | 177.35 | 179.04 | 180.93
x2 = 0.2317 | 177.67 | 179.22 | 181.06
x2 = 0.2725 | 177.98 | 179.48 | 181.12
x2 = 0.3126 | 178.18 | 179.64 | 181.1
x2 = 0.3516 | 178.38 | 179.7 | 181.14
x2 = 0.3916 | 178.43 | 179.77 | 181.06
x2 = 0.4332 | 178.43 | 179.72 | 180.88
x2 = 0.4753 | 178.35 | 179.67 | 180.61
x2 = 0.5121 | 178.24 | 179.47 | 180.38
x2 = 0.5512 | 177.97 | 179.17 | 180.03
x2 = 0.5925 | 177.61 | 178.79 | 179.53
x2 = 0.6325 | 177.15 | 178.25 | 179.05
x2 = 0.6715 | 176.58 | 177.74 | 178.48
x2 = 0.7122 | 175.92 | 176.99 | 177.81
x2 = 0.7534 | 175.18 | 176.18 | 177
x2 = 0.7921 | 174.31 | 175.32 | 176.22
x2 = 0.8324 | 173.32 | 174.4 | 175.34
x2 = 0.8731 | 172.28 | 173.34 | 174.46
x2 = 0.9123 | 171.14 | 172.21 | 173.5
x2 = 0.9543 | 169.86 | 171 | 172.43

CN1CCCC1=O [N-methylpyrrolidone]
Conditions | mass density, 293.15 K [kg/m3] | mass density, 298.15 K [kg/m3] | mass density, 303.15 K [kg/m3] | molar heat capacity at constant pressure, 293.15 K [J/K/mol] | molar heat capacity at constant pressure, 298.15 K [J/K/mol] | molar heat capacity at constant pressure, 303.15 K [J/K/mol] | speed of sound, 293.15 K [m/s] | speed of sound, 298.15 K [m/s] | speed of sound, 303.15 K [m/s]
[2] | 1033.28 | 1028.26 | 1023.49 | – | – | – | 1565.6 | 1546.1 | 1527.3
[3] | – | – | – | 165.44 | 166.22 | 166.92 | – | – | –

CN1CCCC1=O [N-methylpyrrolidone] + Cc1ccc(Cl)cc1
[1], x1 = 1
Conditions | molar heat capacity at constant pressure [J/K/mol]
293.15 K | 165.44
298.15 K | 166.22
303.15 K | 166.92

CN1CCCC1=O [N-methylpyrrolidone] + Cc1cccc(Cl)c1
[1], x1 = 1
Conditions | molar heat capacity at constant pressure [J/K/mol]
293.15 K | 165.44
298.15 K | 166.22
303.15 K | 166.92

CN1CCCC1=O [N-methylpyrrolidone] + Cc1ccccc1Cl
[1], x1 = 1
Conditions | molar heat capacity at constant pressure [J/K/mol]
293.15 K | 165.44
298.15 K | 166.22
303.15 K | 166.92
